Patent publication US12679843B2, “Pyrrolopyrimidine amines as complement inhibitors” (BioCryst Pharmaceuticals, Inc., priority 2020, dated 2026)

Molecular target: Factor D (Homo sapiens, UniProt P00746)
Assay: Factor D esterolytic assay (Z-Lys-SBzl thioester substrate, DTNB, 405 nm)
Assay type: biochemical
Conditions: substrate Z-Lys-SBzl 1.29 mM, 100 mM HEPES, 500 mM NaCl, pH 7.5, 10% DMSO, tested a minimum of three times
Experimental: The IC50 value of a compound (i.e., the concentration of the compound that inhibits 50% of the enzymatic activity) was calculated according to the procedure reported in U.S. Pat. No. 6,653,340 B1, e.g., column 74 (incorporated by reference).
Specifically, the compounds were dissolved in a stock solution of DMSO at 10.0 or 100 mM. A portion of this stock solution was added to assay buffer in a final volume of 50 μL. Controls included buffer alone and enzyme solutions to which DMSO was added. Substrate was added to the reaction wells immediately or after incubation at room temperature. The reaction rates were measured spectrophotometrically by the generation of product at 405 nm for 600 sec. Background absorbance at 690 nm was measured and subtracted from the absorbance at 405 nm for each well.
The reaction rate for enzyme alone was compared to the rate of enzyme in the presence of inhibitor and the percent inhibition was calculated as shown below: Percent Inhibition=[Rate without inhibitor−Rate with inhibitor)/(Rate without inhibitor)]−100 Factor D Esterolytic Assay:
An established esterolytic assay for the measurement of Factor D activity and inhibition of Factor D activity was used (Kam, C. M.; McRae, B. J.; Harper, J. W.; Niemann, M. A.; Volanakis, J. E.; Powers, J. C. Human complement proteins D. C2, and B Active site mapping with peptide thioester substrates. J Biol. Chem. 1987, 262, 3444-3451). For this assay Z-Lys-SBzl, 1.29 mM (Kim, S.; Narayana, S. V. L; Volanakis, J. E. Mutational analysis of the substrate binding site of human complement Factor D. Biochemistry, 1994, 33, 14393-14399) was used as the substrate for Factor D ([…]). Hydrolysis of this compound by Factor D liberated a free sulfhydryl group which is then reacted with 5,5′-dithiobis(2-nitrobenzoic acid) producing an intense yellow color (Habeeb, A. F. S. A. Reaction of protein sulfhydryl groups with Ellman's Reagent. Methods in Enzymol. 1976, 25, 457-464). The assays were performed in 96 well microtiter plates and rates of hydrolysis were monitored at 405 nm on a Biotek Synergy H1 plate reader. Hydrolysis rates were reported as change in mOD/min. The assay was conducted in 100 mM HEPES, 500 mM NaCl, pH 7.5 containing 10% DMSO in a final volume of 50 μL per well.
An IC50, a compound concentration which inhibits 50% of the enzymatic activity, was calculated. Compounds in the examples were tested a minimum of three times.

Chain of Factor D (P00746 26-253): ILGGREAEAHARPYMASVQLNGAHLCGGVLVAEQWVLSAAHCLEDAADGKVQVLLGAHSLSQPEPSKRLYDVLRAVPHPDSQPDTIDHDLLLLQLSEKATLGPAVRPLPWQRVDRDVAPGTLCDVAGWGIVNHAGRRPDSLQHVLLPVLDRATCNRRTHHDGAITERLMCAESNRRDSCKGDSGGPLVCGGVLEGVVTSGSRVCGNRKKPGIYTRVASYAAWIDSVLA

`Nc1ncnc2c1c1cc(C(F)(F)F)ccc1n2CC(=O)N1[C@@H]2C[C@@H]2C[C@H]1C(=O)Nc1cccc(Br)c1F` [Compound 268b, (1R,3S,5R)-2-(2-(4-amino-6-(trifluoromethyl)-9H-pyrimido[4,5-b]indol-9-yl)acetyl)-N-(3-bromo-2-fluorophenyl)-2-azabicyclo[3.1.0]hexane-3-carboxamide] and `Nc1ncnc2c1c1cc(OC(F)(F)F)ccc1n2CC(=O)N1[C@@H]2C[C@@H]2C[C@H]1C(=O)Nc1cccc(Br)n1` [Compound 274g, (1R,3S,5R)-2-(2-(4-amino-6-(trifluoromethoxy)-9H-pyrimido[4,5-b]indol-9-yl)acetyl)-N-(6-bromopyridin-2-yl)-2-azabicyclo[3.1.0]hexane-3-carboxamide] cannot be ordered by IC50: < 100 nM for the first, < 100 nM for the second.

`C[C@@]12C[C@@H](C(=O)Nc3cccc(Br)n3)N(C(=O)Cn3c4ccc(C(N)=O)cc4c4c(N)ncnc43)[C@@H]1C2` [Compound 203a, 4-amino-9-(2-((1R,3S,5R)-3-((6-bromopyridin-2-yl)carbamoyl)-5-methyl-2-azabicyclo[3.1.0]hexan-2-yl)-2-oxoethyl)-9H-pyrimido[4,5-b]indole-6-carboxamide] and `Cc1cc2c(cc1Br)c1c(N)ncnc1n2CC(=O)N1[C@H](C(=O)Nc2cccc(Br)n2)C[C@@]2(C)C[C@@H]12` [Compound 380a, (1R,3S,5R)-2-(2-(4-amino-6-bromo-7-methyl-9H-pyrimido[4,5-b]indol-9-yl)acetyl)-N-(6-bromopyridin-2-yl)-5-methyl-2-azabicyclo[3.1.0]hexane-3-carboxamide] cannot be ordered by IC50: < 100 nM for the first, < 100 nM for the second.

Compared with `Nc1ncnc2c1c(Br)cn2CC(=O)N1C[C@H](F)C[C@H]1C(=O)NCc1cccc(Cl)c1F` [Compound 116b, (2S,4R)-1-(2-(4-amino-5-bromo-7H-pyrrolo[2,3-d]pyrimidin-7-yl)acetyl)-N-(3-chloro-2-fluorobenzyl)-4-fluoropyrrolidine-2-carboxamide], `Nc1ncnc2ccc(CC(=O)N3C[C@H](F)C[C@H]3C(=O)NCc3cccc(Cl)c3F)cc12` [Compound 294c, (2S,4R)-1-(2-(4-aminoquinazolin-6-yl)acetyl)-N-(3-chloro-2-fluorobenzyl)-4-fluoropyrrolidine-2-carboxamide] is higher in IC50: 100 to 1000 nM for the first, > 1000 nM for the second. The first is the more potent here.

First: C[C@@H]1C[C@@H](C(=O)Nc2cccc(Br)n2)N(C(=O)Cn2c3ccc(C(F)(F)F)cc3c3c(N)ncnc32)C1 [Compound 206c, (2S,4R)-1-(2-(4-amino-6-(trifluoromethyl)-9H-pyrimido[4,5-b]indol-9-yl)acetyl)-N-(6-bromopyridin-2-yl)-4-methylpyrrolidine-2-carboxamide]
Second: C[C@@]12C[C@@H](C(=O)Nc3cccc(Cl)n3)N(C(=O)Cn3c4ccc(C(F)(F)F)cc4c4c(N)ncnc43)[C@@H]1C2 [Compound 269c, (1R,3S,5R)-2-(2-(4-amino-6-(trifluoromethyl)-9H-pyrimido[4,5-b]indol-9-yl)acetyl)-N-(6-chloropyridin-2-yl)-5-methyl-2-azabicyclo[3.1.0]hexane-3-carboxamide]
The IC50 of the first is higher: 100 to 1000 nM for the first, < 100 nM for the second. The second is the more potent here.

First: Nc1ncnc2c1c1cccc(C(=O)O)c1n2CC(=O)N1[C@@H]2C[C@@H]2C[C@H]1C(=O)Nc1cccc(Br)n1 [Compound 220a, 4-amino-9-(2-((1R,3S,5R)-3-((6-bromopyridin-2-yl)carbamoyl)-2-azabicyclo[3.1.0]hexan-2-yl)-2-oxoethyl)-9H-pyrimido[4,5-b]indole-8-carboxylic acid]
Second: Nc1ncnc2c1c1cc(CCC(=O)O)ccc1n2CC(=O)N1[C@@H]2C[C@@H]2C[C@H]1C(=O)Nc1cccc(Br)n1 [Compound 165a, 3-(4-amino-9-(2-((1R,3S,5R)-3-((6-bromopyridin-2-yl)carbamoyl)-2-azabicyclo[3.1.0]hexan-2-yl)-2-oxoethyl)-9H-pyrimido[4,5-b]indol-6-yl)propanoic acid]
The IC50 of the first is higher: 100 to 1000 nM for the first, < 100 nM for the second. The second is the more potent here.

`Cc1cccc(-c2ccc3c(c2)c2c(N)ncnc2n3CC(=O)N2[C@@H]3C[C@@H]3C[C@H]2C(=O)Nc2cccc(Br)n2)c1` [Compound 271c, (1R,3S,5R)-2-(2-(4-amino-6-(m-tolyl)-9H-pyrimido[4,5-b]indol-9-yl)acetyl)-N-(6-bromopyridin-2-yl)-2-azabicyclo[3.1.0]hexane-3-carboxamide] and `C=Cc1ccc2c(c1)c1c(N)ncnc1n2CC(=O)N1[C@@H]2C[C@@H]2C[C@H]1C(=O)Nc1cccc(Br)n1` [Compound 59c, (1R,3S,5R)-2-(2-(4-amino-6-vinyl-9H-pyrimido[4,5-b]indol-9-yl)acetyl)-N-(6-bromopyridin-2-yl)-2-azabicyclo[3.1.0]hexane-3-carboxamide] cannot be ordered by IC50: < 100 nM for the first, < 100 nM for the second.

`O=C(NCc1cccc(Cl)c1F)[C@@H]1C[C@@H](F)CN1C(=O)Cn1ccc2c3[nH]c(=O)[nH]c(=O)c3cnc21` [Compound 145a, (2S,4R)—N-(3-chloro-2-fluorobenzyl)-1-(2-(2,4dioxo-3,4dihydro-1H-pyrrolo[3′,2′:5,6]pyrido[4,3-d]pyrimidin-7 (2H)-yl)acetyl)-4-fluoropyrrolidine-2-carboxamide] and `Nc1ncnc2c1ncn2CC(=O)N1C[C@H](F)C[C@H]1C(=O)Nc1cccc(Br)n1` [Compound 93a, (2S,4R)-1-(2-(6-amino-9H-purin-9-yl)acetyl)-N-(6-bromopyridin-2-yl)-4-fluoropyrrolidine-2-carboxamide] fall in the same range of IC50: 100 to 1000 nM for the first, 100 to 1000 nM for the second.

`COc1cccc2c1c1c(N)ncnc1n2CC(=O)N1[C@H](C(=O)Nc2nc(Br)ccc2C)C[C@@]2(C)C[C@@H]12` [Compound 249a, (1R,3S,5R)-2-(2-(4-amino-5-methoxy-9H-pyrimido[4,5-b]indol-9-yl)acetyl)-N-(6-bromo-3-methylpyridin-2-yl)-5-methyl-2-azabicyclo[3.1.0]hexane-3-carboxamide] and `COc1cccc2c3c(N)ncnc3n(CC(=O)N3[C@H](C(=O)Nc4cccc(Br)n4)C[C@@]4(C)C[C@@H]34)c12` [Compound 173a, (1R,3S,5R)-2-(2-(4-amino-8-methoxy-9H-pyrimido[4,5-b]indol-9-yl)acetyl)-N-(6-bromopyridin-2-yl)-5-methyl-2-azabicyclo[3.1.0]hexane-3-carboxamide] cannot be ordered by IC50: < 100 nM for the first, < 100 nM for the second.

`CC(C)=C(F)CNC(=O)[C@@H]1C[C@H]2C[C@H]2N1C(=O)Cn1cnc2c(N)ncnc21` [Compound 111b, (1R,3S,5R)-2-(2-(6-amino-9H-purin-9-yl)acetyl)-N-(2-fluoro-3-methylbut-2-en-1-yl)-2-azabicyclo[3.1.0]hexane-3-carboxamide] and `Nc1ncnc2c1ncn2CC(=O)N1[C@@H]2C[C@@H]2C[C@H]1C(=O)NCC1CC1(Cl)Cl` (stereo partly drawn) [Compound 103b, (1R,3S,5R)-2-(2-(6-amino-9H-purin-9-yl)acetyl)-N-((2,2-dichlorocyclopropyl)methyl)-2-azabicyclo[3.1.0]hexane-3-carboxamide] fall in the same range of IC50: 100 to 1000 nM for the first, 100 to 1000 nM for the second.

`Cc1cc(-c2ccccn2)cc2c3c(N)ncnc3n(CC(=O)N3[C@H](C(=O)Nc4cccc(Br)n4)C[C@@]4(C)C[C@@H]34)c12` [Compound 378c, (1R,3S,5R)-2-(2-(4-amino-8-methyl-6-(pyridin-2-yl)-9H-pyrimido[4,5-b]indol-9-yl)acetyl)-N-(6-bromopyridin-2-yl)-5-methyl-2-azabicyclo[3.1.0]hexane-3-carboxamide] and `Cc1cc(C(F)(F)F)cc2c3c(N)ncnc3n(CC(=O)N3[C@@H]4C[C@@H]4C[C@H]3C(=O)Nc3cccc(C(F)(F)F)n3)c12` [Compound 349c, (1R,3S,5R)-2-(2-(4-amino-8-methyl-6-(trifluoromethyl)-9H-pyrimido[4,5-b]indol-9-yl)acetyl)-N-(6-(trifluoromethyl)pyridin-2-yl)-2-azabicyclo[3.1.0]hexane-3-carboxamide] cannot be ordered by IC50: < 100 nM for the first, < 100 nM for the second.

First: Cc1cc(F)c(Br)nc1NC(=O)[C@@H]1C[C@H]2C[C@H]2N1C(=O)Cn1c2ncnc(N)c2c2cc(C(F)(F)F)cc(C)c21 [Compound 322c, (1R,3S,5R)-2-(2-(4-amino-8-methyl-6-(trifluoromethyl)-9H-pyrimido[4,5-b]indol-9-yl)acetyl)-N-(6-bromo-5-fluoro-3-methylpyridin-2-yl)-2-azabicyclo[3.1.0]hexane-3-carboxamide]
Second: Nc1ncnc2c1cnn2CC(=O)N1[C@@H]2C[C@@H]2C[C@H]1C(=O)Nc1cccc(Br)n1 [Compound 79a, (1R,3S,5R)-2-(2-(4-amino-1H-pyrazolo[3,4-d]pyrimidin-1-yl)acetyl)-N-(6-bromopyridin-2-yl)-2-azabicyclo[3.1.0]hexane-3-carboxamide]
The IC50 of the first is lower: < 100 nM for the first, 100 to 1000 nM for the second. The first is the more potent here.
